From patent publication US10815264B2, “Nucleotides for the treatment of cancer” (IDENIX PHARMACEUTICALS LLC, priority 2015, dated 2020)
Read-outs that look alike come from different tables or passages of the source.

Experiments:
Assay in all cases: In vitro inhibition, CellTiter-Glo (CTG) assay, 72 hr exposure
Format in all cases: cell-based
CCRF-CEM = test system: CCRF-CEM
Protocol: (§1) Cells were grown in RPMI-1640 supplemented with L-Glutamine and 10% FBS of the following cell lines:
(§2) CCRF-CEM; CCRF-CEM-cytarabine resistant; HL-60; K562; CFPAC-1; MiaPACA-2; BxPC-3; PANC-1; HepG2; MDA-MB-231; HCT-116; A498; and NCI-H69
(§3) 18, 96 well plates of each cell line were seeded with the optimized number of cells per well in a total volume of 50 μL per well. The plates were left overnight. Plate wells were seeded with 100 μL media for media control. The following day, cells were exposed to test compounds as described below. At the same time as drug exposure, a CTG assay was conducted on the 18th plate for the 0 hr count.
(§4) The compounds were added to cells and medium already on the plate to give desired final concentrations. 50 μL media were added to cell control wells, and 50 μL of mix added to vehicle control wells. 10 μM Doxorubicin was added to appropriate wells. Cells exposed to test compound were incubated at 37° C. for 72 hr followed by a CTG assay.
(§5) At the end of the 72 hr exposure period, plates were removed for a CellTiter-Glo (CTG) assay from a 37° C., 5% CO2 incubator and placed on the bench at room temperature for 30 mins. 100 μL of CellTiter-Glo reagent was added and mixed for 2 mins, followed by a further 10 min incubation at room temperature. Luminescence was recorded using Synergy 4.0.

NCI-H69 = test system: NCI-H69
Protocol: as §1, §2, §3, §4, §5

MDA-MB-231 = conditions: MDA-MB-231, 72 hr
Protocol: as §1, §2, §3, §4, §5

HL-60 = test system: HL-60
Protocol: as §1, §2, §3, §4, §5

BxPC-3 = test system: BxPC-3
Protocol: as §1, §2, §3, §4, §5

HepG2 = test system: HepG2
Protocol: as §1, §2, §3, §4, §5

HCT-116 = test system: HCT-116
Protocol: as §1, §2, §3, §4, §5

[1] = test system: CCRF-CEM-cytarabine resistant
Protocol: as §1, §2, §3, §4, §5

CFPAC-1 = test system: CFPAC-1
Protocol: as §1, §2, §3, §4, §5

PANC-1 = conditions: PANC-1, 72 hr
Protocol: as §1, §2, §3, §4, §5

K562 = conditions: K562, 72 hr
Protocol: as §1, §2, §3, §4, §5

A498 = test system: A498
Protocol: as §1, §2, §3, §4, §5

MiaPACA-2 = test system: MiaPACA-2
Protocol: as §1, §2, §3, §4, §5

[2] = Homo sapiens, MIA PaCa-2, MiaPACA-2, 72 hr

Structure (SMILES) | IC50 (CCRF-CEM) | IC50 (NCI-H69; NCI-H69, 72 hr) | IC50 (MDA-MB-231) | IC50 (HL-60; HL-60, 72 hr) | IC50 (BxPC-3; BxPC-3, 72 hr) | IC50 (HepG2; HepG2, 72 hr) | IC50 (HCT-116; HCT-116, 72 hr) | IC50 [1] | IC50 (PANC-1) | IC50 (K562) | IC50 (MiaPACA-2; MiaPACA-2, 72 hr) | IC50 (CCRF-CEM; Homo sapiens, 72 h) | IC50 (MDA-MB-231; Homo sapiens) | IC50 (HL-60; Homo sapiens, HL-60, 72 h) | IC50 (HepG2; Homo sapiens, HepG2, 72 h) | IC50 (PANC-1; Homo sapiens) | IC50 (K562; Homo sapiens) | IC50 (MiaPACA-2; [2]) | IC50 (CFPAC-1; CFPAC-1, 72 hr) | IC50 (A498; A498, 72 hr) | also measured
COC(=O)COP(=O)(N[C@@H](CC(C)C)C(=O)OC)OC[C@H]1S[C@@H](n2ccc(N)nc2=O)[C@@H](O)[C@@H]1O (single isomer, unassigned) [Compound 104b (diastereoisomer 2)] | < 1 µM | 10 to 100 µM | 10 to 100 µM | < 1 µM | 10 to 100 µM | 10 to 100 µM | 10 to 100 µM | 10 to 100 µM | 10 to 100 µM | 10 to 100 µM | 10 to 100 µM |  |  |  |  |  |  |  | 10 to 100 µM | 10 to 100 µM | 
CC(C)(C)SSCCOP(=O)(NCc1ccccc1)OC[C@H]1S[C@@H](n2ccc(N)nc2=O)[C@@H](O)[C@@H]1O (single isomer, unassigned) [Compound 105 (diastereoisomer 1)] | 1 to 10 µM | 1 to 10 µM |  | 1 to 10 µM |  |  |  | 10 to 100 µM |  |  |  |  | 10 to 100 µM |  | 10 to 100 µM | 10 to 100 µM | 10 to 100 µM | 1 to 10 µM |  |  | IC50 (BxPC-3; Homo sapiens, BXPC-3, 72 h): 10 to 100 µM; IC50 (HCT-116; Homo sapiens, HCT-116, 72 h): 10 to 100 µM; IC50 (CFPAC-1; Homo sapiens, CFPAC-1, 72 h): 10 to 100 µM; IC50 (A498; Homo sapiens, A498, 72 h): 10 to 100 µM
CC(C)(C)SSCCOP(=O)(NCc1ccccc1)OC[C@H]1S[C@@H](n2ccc(N)nc2=O)[C@@H](O)[C@@H]1O (single isomer, unassigned) [Compound 105 (diastereoisomer 2)] | 10 to 100 µM | 10 to 100 µM | 10 to 100 µM | 10 to 100 µM | 10 to 100 µM | 10 to 100 µM | 10 to 100 µM | 10 to 100 µM | 10 to 100 µM | 10 to 100 µM | 1 to 10 µM |  |  |  |  |  |  |  | 10 to 100 µM | 10 to 100 µM | 
CC(=O)OC[C@H](C)NP1(=O)OC[C@H]2S[C@@H](n3ccc(N)nc3=O)[C@@H](O)[C@@H]2O1 (single isomer, unassigned) [Compound 108b (diastereoisomer 1)] |  |  |  |  |  |  |  | 10 to 100 µM |  |  |  | 10 to 100 µM | 10 to 100 µM | 10 to 100 µM | 10 to 100 µM | 10 to 100 µM | 10 to 100 µM | 10 to 100 µM |  |  | IC50 (NCI-H69; Homo sapiens, NCI-H69, 72 h): 10 to 100 µM; IC50 (BxPC-3; Homo sapiens, BXPC-3, 72 h): 10 to 100 µM; IC50 (HCT-116; Homo sapiens, HCT-116, 72 h): 10 to 100 µM; IC50 (CFPAC-1; Homo sapiens, CFPAC-1, 72 h): 10 to 100 µM; IC50 (A498; Homo sapiens, A498, 72 h): 10 to 100 µM
Nc1ccn([C@@H]2S[C@H](COP(=O)(O)NCc3ccccc3)[C@@H](O)[C@@H]2O)c(=O)n1 [Compound 107, [(2R,3S,4S,5R)-5-(4-amino-2-oxo-pyrimidin-1-yl)-3,4-dihydroxy-tetrahydrothiophen-2-yl]methoxy-N-benzyl-phosphonamidic acid] |  |  |  |  |  |  |  | 10 to 100 µM |  |  |  | 1 to 10 µM | 10 to 100 µM | 1 to 10 µM | 1 to 10 µM | 10 to 100 µM | 10 to 100 µM | 1 to 10 µM |  |  | IC50 (NCI-H69; Homo sapiens, NCI-H69, 72 h): 10 to 100 µM; IC50 (BxPC-3; Homo sapiens, BXPC-3, 72 h): 10 to 100 µM; IC50 (HCT-116; Homo sapiens, HCT-116, 72 h): 10 to 100 µM; IC50 (CFPAC-1; Homo sapiens, CFPAC-1, 72 h): 10 to 100 µM; IC50 (A498; Homo sapiens, A498, 72 h): 10 to 100 µM

Now from value to compound, other results behind:

IC50 (CCRF-CEM) | IC50 (NCI-H69; NCI-H69, 72 hr) | IC50 (MDA-MB-231) | IC50 (HL-60; HL-60, 72 hr) | IC50 (BxPC-3; BxPC-3, 72 hr) | IC50 (HepG2; HepG2, 72 hr) | IC50 (HCT-116; HCT-116, 72 hr) | IC50 [1] | IC50 (PANC-1) | IC50 (K562) | IC50 (MiaPACA-2; MiaPACA-2, 72 hr) | IC50 (CCRF-CEM; Homo sapiens, 72 h) | IC50 (MDA-MB-231; Homo sapiens) | IC50 (HL-60; Homo sapiens, HL-60, 72 h) | IC50 (HepG2; Homo sapiens, HepG2, 72 h) | IC50 (PANC-1; Homo sapiens) | IC50 (K562; Homo sapiens) | IC50 (MiaPACA-2; [2]) | Structure (SMILES) | IC50 (CFPAC-1; CFPAC-1, 72 hr) | IC50 (A498; A498, 72 hr) | also measured
< 1 µM | 10 to 100 µM | 10 to 100 µM | 1 to 10 µM | 10 to 100 µM | 10 to 100 µM | 10 to 100 µM | 10 to 100 µM | 10 to 100 µM | 10 to 100 µM | 10 to 100 µM |  |  |  |  |  |  |  | CCOC(=O)COP(=O)(N[C@@H](CC(C)C)C(=O)OCC)OC[C@H]1S[C@@H](n2ccc(N)nc2=O)[C@@H](O)[C@@H]1O (single isomer, unassigned) [Compound 102b (diastereoisomer 2)] | 10 to 100 µM | 10 to 100 µM | 
 | 10 to 100 µM |  |  | 10 to 100 µM |  | 10 to 100 µM | 1 to 10 µM |  |  |  | < 1 µM | 10 to 100 µM | < 1 µM | 1 to 10 µM | 10 to 100 µM | 1 to 10 µM | 1 to 10 µM | Nc1ccn([C@@H]2S[C@H](COP(=O)(NCc3ccccc3)OCc3ccc([N+](=O)[O-])o3)[C@@H](O)[C@@H]2O)c(=O)n1 (single isomer, unassigned) [Compound 103 (diastereoisomer 1)] | 10 to 100 µM | 10 to 100 µM | 
< 1 µM | 1 to 10 µM | 10 to 100 µM | < 1 µM | 1 to 10 µM | 1 to 10 µM | 1 to 10 µM | 1 to 10 µM | 10 to 100 µM | 1 to 10 µM | 1 to 10 µM |  |  |  |  |  |  |  | Nc1ccn([C@@H]2S[C@H](COP(=O)(NCc3ccccc3)OCc3ccc([N+](=O)[O-])o3)[C@@H](O)[C@@H]2O)c(=O)n1 (single isomer, unassigned) [Compound 103 (diastereoisomer 2)] | 1 to 10 µM | 1 to 10 µM | 
 |  |  |  |  | 1 to 10 µM |  | 10 to 100 µM |  |  |  | < 1 µM | 10 to 100 µM | 1 to 10 µM |  | 10 to 100 µM | 10 to 100 µM | 10 to 100 µM | COC(=O)COP(=O)(N[C@@H](CC(C)C)C(=O)OC)OC[C@H]1S[C@@H](n2ccc(N)nc2=O)[C@@H](O)[C@@H]1O (single isomer, unassigned) [Compound 104b (diastereoisomer 1)] |  |  | IC50 (NCI-H69; Homo sapiens, NCI-H69, 72 h): 10 to 100 µM; IC50 (BxPC-3; Homo sapiens, BXPC-3, 72 h): 10 to 100 µM; IC50 (HCT-116; Homo sapiens, HCT-116, 72 h): 10 to 100 µM; IC50 (CFPAC-1; Homo sapiens, CFPAC-1, 72 h): 10 to 100 µM; IC50 (A498; Homo sapiens, A498, 72 h): 10 to 100 µM
